Source: patent US9957271B2, “Substituted bicyclic aza-heterocycles and analogues as sirtuin modulators” (GlaxoSmithKline, LLC, priority 2012, dated 2018)

Experiments:
SIRT1 [1] = target: T1, SIRT1 (Homo sapiens, UniProt Q96EB6); assay: TAMRA based mass spectrometry assay of SIRT1 activity; assay type: biochemical; conditions: TAMRA assay; for TAMRA EC1.5 (μM): concentration giving 150% activation of SIRT1; for Emax: percent maximum fold activation, read-out: TAMRA % Fold Act
T1 sequence (Q96EB6 1-747): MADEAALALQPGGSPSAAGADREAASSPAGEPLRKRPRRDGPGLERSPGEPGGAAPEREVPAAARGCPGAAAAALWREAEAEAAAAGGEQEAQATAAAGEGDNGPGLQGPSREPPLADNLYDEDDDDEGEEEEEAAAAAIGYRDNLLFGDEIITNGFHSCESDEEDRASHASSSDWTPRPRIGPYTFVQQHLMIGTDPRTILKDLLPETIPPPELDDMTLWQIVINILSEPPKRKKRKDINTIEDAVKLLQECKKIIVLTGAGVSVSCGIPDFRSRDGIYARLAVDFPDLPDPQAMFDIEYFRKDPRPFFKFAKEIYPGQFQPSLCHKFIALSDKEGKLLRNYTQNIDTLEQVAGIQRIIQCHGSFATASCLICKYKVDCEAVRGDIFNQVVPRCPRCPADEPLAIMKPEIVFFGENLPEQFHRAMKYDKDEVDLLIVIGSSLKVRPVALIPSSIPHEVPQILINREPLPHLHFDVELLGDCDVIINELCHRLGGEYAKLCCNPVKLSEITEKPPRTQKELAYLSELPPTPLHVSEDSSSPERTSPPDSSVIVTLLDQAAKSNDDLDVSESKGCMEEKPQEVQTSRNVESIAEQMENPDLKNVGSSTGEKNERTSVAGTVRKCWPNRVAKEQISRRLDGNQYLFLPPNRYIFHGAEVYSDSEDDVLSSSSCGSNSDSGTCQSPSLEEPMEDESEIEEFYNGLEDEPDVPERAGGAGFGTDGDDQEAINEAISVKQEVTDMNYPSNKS
Outline: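 Deacetylation of a biotinylated, TAMRA-tagged p53-based peptide (0.5 μM) by 10 nM His-tagged SIRT1 with 120 μM βNAD+, 25 °C for 25 min, pH 8 Tris-acetate buffer, across a compound concentration range. Quenched by formic acid and read by mass spec as product peptide or OAADPR; activity relative to DMSO reactions, nicotinamide defining maximal inhibition.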

SIRT1 [2] = target: T1, SIRT1; assay: Trp mass spectrometry assay of SIRT1 activity; assay type: biochemical; conditions: Trp assay; for Trp EC1.5 (μM): concentration giving 150% activation of SIRT1; for Emax: percent maximum fold activation, read-out: Trp % Fold Act
Outline: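 Activation readout: EC1.5 (concentration raising activity 50% over control) and percent maximum activation, from mass-spec quantitation of OAADPR or deacetylated Trp peptide. Reaction: 0.5 μM acetylated Trp peptide, 120 μM βNAD+, 10 nM bacterially expressed N-His SIRT1, pH 7.5 HEPES buffer with […], 25 min at 25° C.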

SMILES | TAMRA EC1.5 (μM) (SIRT1 [1]) | Emax (SIRT1 [1]) [%] | Trp EC1.5 (μM) (SIRT1 [2]) | Emax (SIRT1 [2]) [%]
O=C(Nc1ccc(F)cn1)c1cnn2ccc(-c3ccccc3OC(F)(F)F)nc12 [Compound 609] | C (EC1.5>25 μM) | < 350 | C (EC1.5>25 μM) | < 350
Cc1ccncc1NC(=O)c1cnn2ccc(-c3ccccc3OC(F)(F)F)nc12 [Compound 610] | B (EC1.5 1-25 μM) | < 350 | A (EC1.5<1 μM) | ≥ 350
Cc1cc(NC(=O)c2cnn3ccc(-c4ccccc4OC(F)(F)F)nc23)ccn1 [Compound 612] | A (EC1.5<1 μM) | ≥ 350 | A (EC1.5<1 μM) | ≥ 350
Cc1cc(-c2ccccc2C(F)(F)F)nn2c(C(=O)Nc3ccnc(OC(C)C)n3)cnc12 [Compound 615] | A (EC1.5<1 μM) | ≥ 350 | A (EC1.5<1 μM) | ≥ 350
Cc1cncc(NC(=O)c2cnn3ccc(-c4ccccc4OC(F)(F)F)nc23)c1 [Compound 616] | A (EC1.5<1 μM) | ≥ 350 | A (EC1.5<1 μM) | ≥ 350
Cc1ccc(NC(=O)c2cnn3ccc(-c4ccccc4C(F)(F)F)nc23)nc1 [Compound 618] | A (EC1.5<1 μM) | ≥ 350 | B (EC1.5 1-25 μM) | ≥ 350
Cc1ccc(NC(=O)c2cnn3ccc(-c4ccccc4OC(F)(F)F)nc23)cn1 [Compound 621] | A (EC1.5<1 μM) | ≥ 350 | A (EC1.5<1 μM) | ≥ 350
Cc1ncccc1NC(=O)c1cnn2ccc(-c3ccccc3OC(F)(F)F)nc12 [Compound 622] | B (EC1.5 1-25 μM) | < 350 | A (EC1.5<1 μM) | ≥ 350
O=C(Nc1cccnn1)c1cnn2ccc(-c3ccccc3OC(F)(F)F)nc12 [Compound 624] | A (EC1.5<1 μM) | ≥ 350 | A (EC1.5<1 μM) | ≥ 350
COCCOc1nccc(NC(=O)c2cnc3c(C)cc(-c4ccccc4C(F)(F)F)nn23)n1 [Compound 627] | A (EC1.5<1 μM) | ≥ 350 | A (EC1.5<1 μM) | ≥ 350
Cc1cccc(NC(=O)c2c(C)nn3ccc(-c4ccccc4C(F)(F)F)nc23)n1 [Compound 628, 2-methyl-N-(6-methylpyridin-2-yl)-5-(2-(trifluoromethyl)phenyl)pyrazolo[1,5-a]pyrimidine-3-carboxamide] | A (EC1.5<1 μM) | ≥ 350 | A (EC1.5<1 μM) | ≥ 350
Cc1ncccc1NC(=O)c1cnn2ccc(-c3ccccc3C(F)(F)F)nc12 [Compound 630] | B (EC1.5 1-25 μM) | < 350 | A (EC1.5<1 μM) | ≥ 350
Cc1ccc(NC(=O)c2cnn3ccc(-c4ccccc4OC(F)(F)F)nc23)nn1 [Compound 633] | A (EC1.5<1 μM) | ≥ 350 | B (EC1.5 1-25 μM) | < 350
COCCOc1nccc(NC(=O)c2cnc3ccc(-c4ccccc4C(F)(F)F)nn23)n1 [Compound 634] | A (EC1.5<1 μM) | ≥ 350 | A (EC1.5<1 μM) | ≥ 350
CCOc1ccc(NC(=O)c2cnn3ccc(-c4ccccc4OC(F)(F)F)nc23)nn1 [Compound 636] | A (EC1.5<1 μM) | ≥ 350 | B (EC1.5 1-25 μM) | < 350
Cc1nccc(NC(=O)c2c(C)nn3ccc(-c4ccccc4C(F)(F)F)nc23)c1C [Compound 639] | A (EC1.5<1 μM) | ≥ 350 | A (EC1.5<1 μM) | ≥ 350
Cc1ccncc1NC(=O)c1cnn2ccc(-c3ccccc3C(F)(F)F)nc12 [Compound 640] | B (EC1.5 1-25 μM) | < 350 | B (EC1.5 1-25 μM) | < 350
O=C(Nc1cncc(F)c1)c1cnn2ccc(-c3ccccc3C(F)(F)F)nc12 [Compound 642] | A (EC1.5<1 μM) | ≥ 350 | B (EC1.5 1-25 μM) | ≥ 350

SMILES | TAMRA EC1.5 (μM) (SIRT1 [1]) | Emax (SIRT1 [1]) [%] | Trp EC1.5 (μM) (SIRT1 [2]) | Emax (SIRT1 [2]) [%]
O=C(Nc1cnc2ccc(-c3ccccc3C(F)(F)F)nn12)c1cncc(OC[C@@H](O)CO)n1 [Compound 645] | A (EC1.5<1 μM) | ≥ 350 | A (EC1.5<1 μM) | ≥ 350
Cc1cc(-c2ccccc2C(F)(F)F)nn2c(C(=O)Nc3nccc(N4CCCC4)n3)cnc12 [Compound 647] | A (EC1.5<1 μM) | ≥ 350 | A (EC1.5<1 μM) | ≥ 350
Cc1csc(NC(=O)c2c(C)nn3ccc(-c4ccccc4C(F)(F)F)nc23)n1 [Compound 650] | A (EC1.5<1 μM) | ≥ 350 | A (EC1.5<1 μM) | ≥ 350
Cc1cccnc1NC(=O)c1cnn2ccc(-c3ccccc3C(F)(F)F)nc12 [Compound 653] | C (EC1.5>25 μM) | < 350 | B (EC1.5 1-25 μM) | ≥ 350
Cc1cncc(NC(=O)c2cnn3ccc(-c4ccccc4C(F)(F)F)nc23)n1 [Compound 654] | A (EC1.5<1 μM) | ≥ 350 | B (EC1.5 1-25 μM) | < 350
O=C(Nc1ncc(F)cc1F)c1cnn2ccc(-c3ccccc3C(F)(F)F)nc12 [Compound 656] | B (EC1.5 1-25 μM) | ≥ 350 | B (EC1.5 1-25 μM) | < 350
Cc1cc(NC(=O)c2cnn3ccc(-c4ccccc4OC(F)(F)F)nc23)nc(C)n1 [Compound 659] | A (EC1.5<1 μM) | ≥ 350 | B (EC1.5 1-25 μM) | < 350
COCCOc1cc(NC(=O)c2cnc3ccc(-c4ccccc4C(F)(F)F)nn23)ncn1 [Compound 663] | A (EC1.5<1 μM) | ≥ 350 | B (EC1.5 1-25 μM) | < 350
COc1ccc(NC(=O)c2c(C)nc3ccc(-c4ccccc4C(F)(F)F)nn23)nn1 [Compound 665] | A (EC1.5<1 μM) | ≥ 350 | B (EC1.5 1-25 μM) | < 350
COc1ccnc(NC(=O)c2c(C)nc3ccc(-c4ccccc4C(F)(F)F)nn23)c1 [Compound 671] | A (EC1.5<1 μM) | ≥ 350 | A (EC1.5<1 μM) | ≥ 350
Cc1nc2ccc(-c3ccccc3C(F)(F)F)nn2c1C(=O)Nc1ccnn1C(C)(C)C [Compound 672] | B (EC1.5 1-25 μM) | < 350 | B (EC1.5 1-25 μM) | < 350
CCn1nccc1NC(=O)c1c(C)nc2ccc(-c3ccccc3C(F)(F)F)nn12 [Compound 674] | B (EC1.5 1-25 μM) | < 350 | B (EC1.5 1-25 μM) | ≥ 350
Cc1nc2ccc(-c3ccccc3C(F)(F)F)nn2c1C(=O)Nc1ccnn1C(C)C [Compound 680] | B (EC1.5 1-25 μM) | < 350 | B (EC1.5 1-25 μM) | ≥ 350
Cc1ccnnc1NC(=O)c1cnc2c(C)cc(-c3ccccc3C(F)(F)F)nn12 [Compound 681] | C (EC1.5>25 μM) | < 350 | B (EC1.5 1-25 μM) | ≥ 350
Cc1ccnc(NC(=O)c2c(C)nn3ccc(-c4ccccc4C(F)(F)F)nc23)c1 [Compound 683] | A (EC1.5<1 μM) | ≥ 350 | A (EC1.5<1 μM) | ≥ 350
Cc1nn2ccc(-c3ccccc3C(F)(F)F)nc2c1C(=O)Nc1ccc(F)cn1 [Compound 686] | A (EC1.5<1 μM) | ≥ 350 | A (EC1.5<1 μM) | < 350
Cc1cc(C)nc(NC(=O)c2cnn3ccc(-c4ccccc4OC(F)(F)F)nc23)n1 [Compound 688] | B (EC1.5 1-25 μM) | ≥ 350 | B (EC1.5 1-25 μM) | < 350
